Reference: patent US20140024683A1, “CHLORIDE CHANNEL AND CHLORIDE TRANSPORTER MODULATORS FOR THERAPY IN SMOOTH MUSCLE DISEASES” (priority 2011, published 2014)

How the values were obtained:
[1] = tested on: guinea pig tracheal rings; assay: Relaxation of the maintenance phase of a pre-established acetylcholine contraction, guinea pig tracheal rings; settings: alone; pre-contracted with EC50 acetylcholine
Experimental: (§1) Animal protocols were approved by the Columbia University Animal Care and Use Committee. Male Hartley guinea pigs weighing approximately 400 g were anesthetized with intraperitoneal injection of sodium pentobarbital (100 mg/kg). Trachea were removed and transferred to ice cold Krebs-Henseleit (KH) buffer of the following composition (in mM): NaCl 118, KCl 5.6, CaCl2 0.5, MgSO4 0.24, NaH2PO4 1.3, NaHCO3 25, glucose 5.6, pH 7.4. Epithelial-denuded tracheal rings were prepared using a dissecting microscope. Epithelium was removed by gently passing cotton fibers through the lumen of the tracheal rings. The rings were suspended in 4 mL-water jacketed organ baths (37° C.: Radnoti Glass Technology, Monrovia, Calif.) and connected to a Grass FT03 force transducer (Grass Telefactor, West Warwick, R.I.) using silk sutures. The transducers were coupled to the computer with BioPac hardware and data was collected using Acqknowledge 7.3.3 software (BioPac Systems, Goleta, Calif.). KH buffer was bubbled with a gas mixture of 95% oxygen and 5% carbon dioxide and buffer was exchanged every 15 minutes for 1 hour during equilibration of tracheal rings at 1 g resting tension. […].
Chloride channel blockers were then tested against the plateau phase of an established acetylcholine contraction. […]

[2] = tested on: guinea pig tracheal rings; assay: Potentiation of isoproterenol relaxation of acetylcholine contraction, guinea pig tracheal rings; settings: 10 μM bumetanide
Experimental: as §1
Therefore, we tested whether the chloride channel blockers or modulation of chloride flux could be used in combination with β-agonists to potentiate their effects. […]. Therefore, a combination of treatment with compound 13 and bumetanide potentiated the relaxation effect of isoproterenol.

[3] = tested on: calcium activated chloride channel; assay: Whole cell voltage clamp, spontaneous transient inward currents (STICs) in a single guinea pig airway smooth muscle cell; assay type: cell-based; settings: about 100 μM bath application after TEA; holding potential about −60 mV
Source text: Epithelial denuded guinea pig tracheal rings were suspended in organ baths under 1 g resting tension with continuous digital recordings of muscle force. In separate studies, guinea pig airway smooth muscle cells were enzymatically dispersed and cultured.
Glass-bottom dishes served as a disposable recording chamber. ALA VM-8, an 8-chamber pressure-driven drug application system, was used in a still bath of extracellular salt solution. Whole-cell intracellular voltage recordings under current clamp conditions were performed with a 2-kHz Bessel filter, recording at 10 kHz using an Axopatch 200b amplifier (Axon Instruments, Foster City, Calif., USA). Electrodes were pulled using a P-97 micropipette puller from 1.5-mm OD borosilicate capillary glass (Sutter Instruments, Novato, Calif., USA). Glass electrode resistances ranged from 5 to 10 MO with intracellular solution. Whole-cell intracellular current recordings under voltage-clamp conditions were performed with a 2-kHz Bessel filter, recording at 10 kHz using an Axopatch 200b amplifier. For current measurements (FIG. 11) intracellular solutions consisted of (in mM) 140 TEA-Cl, 5 MgATP, 5 EGTA, 1 MgCl2, 10 HEPES, and 5 CaCl2 (pH 7.2). […] TEA-Cl was included in the buffer to enhance STICs which were then recorded during the addition of 100 μM niflumic acid. […] All recordings were analyzed on Clampfit 8.0 software (Molecular Devices).

rat lung slices = assay: Airway lumen area in peripheral small airways of rat lung slices; settings: 100 μM NFA; TEA-induced contraction
Experimental: The measurement of airway contraction of a luminal area of small lung airways using the ex vivo rat lung slice method was performed as described (Perez-Zoghbi et al., 2007). The trachea was cannulated with an intravenous catheter, and after the chest cavity was opened, the collapsed lungs were reinflated with 1.3±0.1 ml of 2% agarose (low-gelling temperature) in Sigma-Hanks' Balanced Salt solution (sHBSS), followed by the injection of 0.2±0.1 of air to flush the agarose-sHBSS out of the airways and into the distal alveolar space. Subsequently, a warm (37° C.) solution of gelatin (type A, porcine skin, 300 bloom, 6% in sHBSS) was perfused through the intrapulmonary blood vessels via the pulmonary artery by injecting about 0.3 ml into the right ventricle. The warm agar and gelatin were gelled with cold sHBSS. A single lung lobe was removed and cut into serial sections of about 130 μm thick with a vibratome at about 4° C., starting at the lung periphery. Slices were maintained in DMEM (Invitrogen) at 37° C. and 10% CO2 for up to 3 days. At 37° C., the gelatin in the blood vessel lumen dissolved, leaving the blood vessel lumen empty. Lung slices were mounted in a custom-made perfusion chamber and held in place with a small sheet of nylon mesh. A second cover glass edged with silicone grease was placed over the lung slice. Perfusion of the lung slice was performed using a gravity-fed perfusion system. The volume of the chamber was about 100 μl with a perfusion rate of about 800 μl/min. […] Digital images were recorded in time lapse (30 frames/min). The area of the bronchiole and arteriole lumen was calculated, from each image, by pixel summing using custom-written software. Experiments were performed at room temperature.

[4] = tested on: guinea pig tracheal rings; assay: Relaxation of potassium gluconate contraction in guinea pig tracheal rings; settings: 100 μM, 80 mM potassium gluconate
Experimental: as §1
Many chloride channel blockers are known to also stimulate potassium channels (Greenwood et al., 2007). Thus, we performed additional studies in the presence of a large extracellular concentration of potassium to ensure that our findings of compound 1 or 13 inhibiting a TEA-induced depolarizing contraction were not due to these compounds opening a potassium channel.

shift of the EC50 of isoproterenol [2] [fold] | SMILES | relaxation of established acetylcholine contraction [1] | spontaneous transient inward currents (STICs) [3] | relaxation of TEA-contracted peripheral airway (lumen area) (rat lung slices) | percent of potassium gluconate-induced contraction at 30 minutes [4] | percent of potassium gluconate-induced contraction at 30 minutes ([4]; listed as NFA)
2.4 | CCCCNc1cc(C(=O)O)cc(S(N)(=O)=O)c1Oc1ccccc1 [bumetanide] | significantly relaxed an acetylcholine contraction |  |  |  | 
 | O=C(O)c1cccnc1Nc1cccc(C(F)(F)F)c1 [niflumic acid] |  | abolishes STIC's | significantly relaxes the peripheral airway contracted with TEA | 47.36%±4.6 | 47.4%±4.6
